Assay results reported in patent US8114589B2, “Self-addressable self-assembling microelectronic integrated systems, component devices, mechanisms, methods, and procedures for molecular biological analysis and diagnostics” (Gamida For Life B.V., priority 1996, dated 2012).
Blank lines part the entries; values can stand above or below the compound they belong to.

Test: Conductivity measurements of transport buffers
Format: physicochemical
Settings: for Average/Std. Deviation / Measurement 1 / Measurement 2 / Measurement 3: conductivity

Average/Std. Deviation: 1.06 +/− 0.055 mS/cm
Measurement 1: 1.02 mS/cm
Measurement 2: 1.03 mS/cm
Measurement 3: 1.12 mS/cm
Compound: O=C([O-])C(=O)[O-].[Na+].[Na+] [5 mM NaOxalate]

Average/Std. Deviation: 2.03 +/− 0.09 mS/cm
Measurement 1: 1.95 mS/cm
Measurement 2: 2.02 mS/cm
Measurement 3: 2.13 mS/cm
Average/Std. Deviation (listed as 0.1 mM MgCl2): 17.3 +/− 0.87 μS/cm
Measurement 1 (listed as 0.1 mM MgCl2): 16.9 μS/cm
Measurement 2 (listed as 0.1 mM MgCl2): 16.7 μS/cm
Measurement 3 (listed as 0.1 mM MgCl2): 18.3 μS/cm
Average/Std. Deviation (listed as 1 mM MgCl2): 186 +/− 18.8 μS/cm
Measurement 1 (listed as 1 mM MgCl2): 174 μS/cm
Measurement 2 (listed as 1 mM MgCl2): 208 μS/cm
Measurement 3 (listed as 1 mM MgCl2): 177 μS/cm
Compound: [Cl-].[Cl-].[Mg+2] [10 mM MgCl2, MgCl2]

Average/Std. Deviation: 934 +/− 43.5 μS/cm
Measurement 1: 901 μS/cm
Measurement 2: 917 μS/cm
Measurement 3: 983 μS/cm
Compound: CC(=O)[O-].[Na+] [10 mM NaAcetate]

Compound: [Cl-].[Na+] [10 mM NaCl, NaCl]
Average/Std. Deviation: 1.12 +/− 0.057 mS/cm
Measurement 1: 1.07 mS/cm
Measurement 2: 1.10 mS/cm
Measurement 3: 1.18 mS/cm
Average/Std. Deviation (listed as 0.1 mM NaCl): 9.43 +/− 0.93 μS/cm
Measurement 1 (listed as 0.1 mM NaCl): 8.80 μS/cm
Measurement 2 (listed as 0.1 mM NaCl): 8.98 μS/cm
Measurement 3 (listed as 0.1 mM NaCl): 10.5 μS/cm
Average/Std. Deviation (listed as 1 mM NaCl): 112.7 +/− 2.08 μS/cm
Measurement 1 (listed as 1 mM NaCl): 112 μS/cm
Measurement 2 (listed as 1 mM NaCl): 115 μS/cm
Measurement 3 (listed as 1 mM NaCl): 111 μS/cm

Average/Std. Deviation: 3.35 +/− 0.19 mS/cm
Measurement 1: 3.50 mS/cm
Measurement 2: 3.14 mS/cm
Measurement 3: 3.40 mS/cm
Average/Std. Deviation (listed as 10 mM TRIS): 572 +/− 10.5 μS/cm
Measurement 1 (listed as 10 mM TRIS): 572 μS/cm
Measurement 2 (listed as 10 mM TRIS): 562 μS/cm
Measurement 3 (listed as 10 mM TRIS): 583 μS/cm
Compound: NC(CO)(CO)CO [50 mM TRIS, TRIS]

Compound: Tris-Borate [100 mM Tris-Borate]
conductivity: 694 μS/cm
